# Results from patent US12202829B2, “Heterocyclic compound” (FIMECS, Inc., priority 2018, dated 2025).
# Where a name gives a salt, the structure may show the parent alone.
# Biological target: T1, human XIAP_BIR3 domain purified protein (Homo sapiens, UniProt P98170)
# T1 construct: purchased R & D
# Assay: XIAP binding inhibitory activity, HTRF method with b-Smac ligand
# Settings: second symbol of the cell; read-out: XIAP binding 50% inhibitory concentration (IC50 value)
# Procedure: Human XIAP binding inhibitory activity were measured by the Homogeneous Time Resolved Fluorescence (HTRF) method with using commercially available human XIAP_BIR3 domain purified protein (R & D) and as a ligand a Smac N-terminal peptide (AVPIAQK (SEQ ID NO: 1)) (hereinafter referred to as “b-Smac”; Peptide Research Laboratories, Inc.) biotinylated at the C-terminus according to a conventional method.
# The HTRF method will be described in detail below. A test compound diluted with a reaction buffer was added to a 384-well white shallow bottom plate (Greiner 784076) at 1 μL/well and flash centrifuged for 30 seconds. Subsequently, human XIAP_BIR3 domain purified protein was diluted with the reaction buffer (25 mM HEPES Buffer containing 100 mM NaCl, 0.1% BSA, and 0.1% triton X-100, pH 7.5) to obtain a 90 nM sample diluent, and the resultant sample diluent was added to the above-mentioned white superficial plate at 4.5 μL/well and flash centrifuged for 30 seconds. Subsequently, b-Smac diluted to 90 nM with the reaction buffer was added to the above-mentioned white superficial plat at 4.5 μL/well and flash centrifuged for 30 seconds. A mixed solution of Anti-6 HIS-Cryptate (Eu3+Cryptate-conjugated mouse monoclonal antibody anti-6 Histidine; cisbio) and Streptavidin-XL^ent! (Highgrade XL665-conjugated streptavidin; cisbio) both diluted 100-fold with HTRF detection buffer (cisbio) at a volume ratio of 1:1 was added to the above white superficial plate at 10 μL/well. After flash centrifuging the white shallow bottom plate for 30 seconds, the white shallow bottom plate was left at room temperature for 4 hours or more in the dark. The white superficial plate after being left was subjected to fluorescence intensity measurement (excitation wavelength: 320 nm, fluorescence wavelength: 665 nm and 615 nm) by EnVision (Perkin Elmer).
# The binding inhibition rate (%) was calculated based on the HTRF ratio in the presence of the test compound to the HTRF ratio in the absence of the test compound (fluorescence intensity at 665 nm/fluorescence intensity at 615 nm).
# T1 sequence (P98170 252-356 limits assumed): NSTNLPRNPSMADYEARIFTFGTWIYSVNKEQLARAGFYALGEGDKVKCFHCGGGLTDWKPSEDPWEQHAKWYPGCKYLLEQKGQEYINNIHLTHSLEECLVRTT
row,IC50 [µM],SMILES
1,3 to 30,"CN[C@@H](C)C(=O)N[C@H](C(=O)N1CCN(C(=O)c2cc3cc(F)c(F)cc3n2CCOCCOCc2ccccc2)CC1)C1CCCCC1 [Example 44, (S)—N—((S)-2-(4-(1-(2-(2-(Benzyloxy)ethoxy)ethyl)-5,6-difluoro-1H-indole-2-carbonyl)piperazin-1-yl)-1-cyclohexyl-2-oxoethyl)-2-(methylamino)propanamide]"
2,3 to 30,"CN[C@@H](C)C(=O)N[C@H](C(=O)N1CCN(C(=O)c2cc3cc(F)c(F)cc3n2CCOCCO)CC1)C1CCCCC1 [Example 45, (S)—N—((S)-1-Cyclohexyl-2-(4-(5,6-difluoro-1-(2-(2-hydroxyethoxy)ethyl)-1H-indole-2-carbonyl)piperazin-1-yl)-2-oxoethyl)-2-(methylamino)propanamide]"

# Same assay, conditions: test compound 3 μM; first symbol of the cell; read-out: XIAP binding inhibition rate when the concentration of the test compound is 3 μM
row,inhibition at 3 µM [%],SMILES
1,> 75,"CN[C@@H](C)C(=O)N[C@H](C(=O)N1CCN(C(=O)c2c(C(=O)NCCOC)c3ccc(OC)cc3n2C)CC1)C1CCCCC1 [Example 25, 2-(4-((S)-2-Cyclohexyl-2-((S)-2-(methylamino)propanamido)acetyl)piperazine-1-carbonyl)-6-methoxy-N-(2-methoxyethyl)-1-methyl-1H-indole-3-carboxamide Hydrochloride]"
2,50 to 75,"CN[C@@H](C)C(=O)N[C@H](C(=O)N1CCN(C(=O)c2c(C(=O)N(C)CCOC)c3ccc(OC)cc3n2C)CC1)C1CCCCC1 [Example 26, 2-(4-((S)-2-Cyclohexyl-2-((S)-2-(methylamino)propanamido)acetyl)piperazine-1-carbonyl)-6-methoxy-N-(2-methoxyethyl)-N,1-dimethyl-1H-indole-3-carboxamide Hydrochloride]"
3,> 75,"CN[C@@H](C)C(=O)N[C@H](C(=O)N1CCN(C(=O)c2c(C(=O)NCC(=O)OC)c3ccc(OC)cc3n2C)CC1)C1CCCCC1 [Example 27, Methyl (2-(4-((S)-2-cyclohexyl-2-((S)-2-(methylamino)propanamido)acetyl)piperazine-1-carbonyl)-6-methoxy-1-methyl-1H-indole-3-carbonyl)glycinate Hydrochloride]"
4,50 to 75,"CN[C@@H](C)C(=O)N[C@H](C(=O)N1CCN(C(=O)c2c(C(=O)N(C)CC(=O)OC)c3ccc(OC)cc3n2C)CC1)C1CCCCC1 [Example 28, Methyl N-(2-(4-((S)-2-cyclohexyl-2-((S)-2-(methylamino)propanamido)acetyl)piperazine-1-carbonyl)-6-methoxy-1-methyl-1H-indole-3-carbonyl)-N-methylglycinate Hydrochloride]"
5,50 to 75,"CN[C@@H](C)C(=O)N[C@H](C(=O)N1CCN(C(=O)c2c(C(=O)N3CCC[C@H]3COC)c3ccc(OC)cc3n2C)CC1)C1CCCCC1 [Example 29, (S)—N—((S)-1-Cyclohexyl-2-(4-(6-methoxy-3-((S)-2-(methoxymethyl)pyrrolidine-1-carbonyl)-1-methyl-1H-indole-2-carbonyl)piperazin-1-yl)-2-oxoethyl)-2-(methylamino)propanamide Hydrochloride]"
6,50 to 75,"CN[C@@H](C)C(=O)N[C@H](C(=O)N1CCN(C(=O)c2c(C(=O)N3CCC[C@@H]3COC)c3ccc(OC)cc3n2C)CC1)C1CCCCC1 [Example 30, (S)—N—((S)-1-Cyclohexyl-2-(4-(6-methoxy-3-((R)-2-(methoxymethyl)pyrrolidine-1-carbonyl)-1-methyl-1H-indole-2-carbonyl)piperazin-1-yl)-2-oxoethyl)-2-(methylamino)propanamide Hydrochloride]"
7,50 to 75,"CN[C@@H](C)C(=O)N[C@H](C(=O)N1CCN(C(=O)c2c(C(=O)N3CC(OC)C3)c3ccc(OC)cc3n2C)CC1)C1CCCCC1 [Example 31, (S)—N—((S)-1-Cyclohexyl-2-(4-(6-methoxy-3-(3-methoxyazetidine-1-carbonyl)-1-methyl-1H-indole-2-carbonyl)piperazin-1-yl)-2-oxoethyl)-2-(methylamino)propanamide Hydrochloride]"
8,50 to 75,"CN[C@@H](C)C(=O)N[C@H](C(=O)N1CCN(C(=O)c2cc3ccc(OC)cc3n2C)C[C@@H]1C)C1CCCCC1 [Example 32, (S)—N—((S)-1-Cyclohexyl-2-((S)-4-(6-methoxy-1-methyl-1H-indole-2-carbonyl)-2-methylpiperazin-1-yl)-2-oxoethyl)-2-(methylamino)propanamide Hydrochloride]"
9,> 75,"CN[C@@H](C)C(=O)N[C@H](C(=O)N1CCN(C(=O)c2cc3ccc(OC)cc3n2C)[C@@H](C)C1)C1CCCCC1 [Example 33, (S)—N—((S)-1-Cyclohexyl-2-((S)-4-(6-methoxy-1-methyl-1H-indole-2-carbonyl)-3-methylpiperazin-1-yl)-2-oxoethyl)-2-(methylamino)propanamide Hydrochloride]"
10,> 75,"CN[C@@H](C)C(=O)N[C@H](C(=O)N1CCN(C(=O)c2cc3ccc(OC)cc3n2C)[C@H](C)C1)C1CCCCC1 [Example 34, (S)—N—((S)-1-Cyclohexyl-2-((R)-4-(6-methoxy-1-methyl-1H-indole-2-carbonyl)-3-methylpiperazin-1-yl)-2-oxoethyl)-2-(methylamino)propanamide Hydrochloride]"
11,> 75,"CN[C@@H](C)C(=O)N[C@H](C(=O)N1CCN(C(=O)c2c(C=O)c3cc(F)ccc3n2C)CC1)C1CCCCC1 [Example 35, (S)—N—((S)-1-Cyclohexyl-2-(4-(5-fluoro-3-formyl-1-methyl-1H-indole-2-carbonyl)piperazin-1-yl)-2-oxoethyl)-2-(methylamino)propanamide Hydrochloride]"
12,> 75,"COc1ccc2cc(C(=O)N3CCN(C(=O)CN4C[C@@H](C)NC[C@@H]4CN4CCOC[C@H]4C)CC3)n(C)c2c1 [Example 36, 1-(4-(6-Methoxy-1-methyl-1H-indole-2-carbonyl)piperazin-1-yl)-2-((2R,5R)-5-methyl-2-(((R)-3-methylmorpholino)methyl)piperazin-1-yl)ethan-1-one]"
13,50 to 75,"CN[C@@H](C)C(=O)N[C@H](C(=O)N1CCN(C(=O)c2c(C(=O)NCCOCCOCC(=O)O)c3ccc(OC)cc3n2C)CC1)C1CCCCC1 [Example 37, 2-(2-(2-(2-(4-((S)-2-Cyclohexyl-2-((S)-2-(methylamino)propanamido)acetyl)piperazine-1-carbonyl)-6-methoxy-1-methyl-1H-indole-3-carboxamido)ethoxy)ethoxy)acetic Acid Hydrochloride]"
14,> 75,"CN[C@@H](C)C(=O)N[C@H](C(=O)N1CCN(C(=O)c2c(C(=O)NCCOCCOCCNC(=O)OCC3c4ccccc4-c4ccccc43)c3ccc(OC)cc3n2C)CC1)C1CCCCC1 [Example 38, (9H-Fluoren-9-yl)methyl (2-(2-(2-(2-(4-((S)-2-cyclohexyl-2-((S)-2-(methylamino)propanamido)acetyl)piperazine-1-carbonyl)-6-methoxy-1-methyl-1H-indole-3-carboxamido)ethoxy)ethoxy)ethyl)carbamate Hydrochloride]"
15,50 to 75,"COc1ccc2cc(C(=O)N3CCN(C(=O)CN4C[C@@H](C)NC[C@@H]4CO)CC3)n(C)c2c1 [Example 39, 2-((2R,5R)-2-(Hydroxymethyl)-5-methylpiperazin-1-yl)-1-(4-(6-methoxy-1-methyl-1H-indole-2-carbonyl)piperazin-1-yl)ethan-1-one hydrochloride]"
16,> 75,"COc1ccc2cc(C(=O)N3CCN(C(=O)CN4C[C@@H](C)NC[C@@H]4CN(C)CCOCCO)CC3)n(C)c2c1 [Example 40, 2-((2R,5R)-2-(((2-(2-Hydroxyethoxy)ethyl) (methyl)amino)methyl)-5-methylpiperazin-1-yl)-1-(4-(6-methoxy-1-methyl-1H-indole-2-carbonyl)piperazin-1-yl)ethan-1-one Hydrochloride]"
17,> 75,"CN[C@@H](C)C(=O)N[C@H](C(=O)N1CCN(C(=O)c2cc3cc(F)c(F)cc3n2C)CC1)C1CCCCC1 [Example 41, (S)—N—((S)-1-Cyclohexyl-2-(4-(5,6-difluoro-1-methyl-1H-indole-2-carbonyl)piperazin-1-yl)-2-oxoethyl)-2-(methylamino)propanamide]"
18,> 75,"CN[C@@H](C)C(=O)N[C@H](C(=O)N1CCN(C(=O)c2cc3ccc(OC)cc3n2C)CC1)C1CCC(F)(F)CC1 [Example 42, (S)—N—((S)-1-(4,4-Difluorocyclohexyl)-2-(4-(6-methoxy-1-methyl-1H-indole-2-carbonyl)piperazin-1-yl)-2-oxoethyl)-2-(methylamino)propanamide Hydrochloride]"
19,> 75,"CN[C@@H](C)C(=O)N[C@H](C(=O)N1CCN(C(=O)c2c(/C=C/C(=O)OC)c3cc(F)ccc3n2C)CC1)C1CCCCC1 [Example 43, Methyl (E)-3-(2-(4-((S)-2-cyclohexyl-2-((S)-2-(methylamino)propanamido)acetyl)piperazine-1-carbonyl)-5-fluoro-1-methyl-1H-indol-3-yl)acrylate Hydrochloride]"
